Source: patent US7232829B2, “Therapeutic compounds and methods” (Regents of the University of Minnesota, priority 2001, dated 2007)
Where two headings read alike, the source gives them in different places.

Columns and labels:
mu opioid receptor = assay: Antagonism of morphine (M) in the electrically stimulated guinea-pig ileal longitudinal muscle (GPI) preparation; type: cell-based; conditions: for M (μ) Ke: GPI preparation, agonist morphine, Ke derived from IC50 ratio; for M (μ) IC50 ratio: GPI, antagonist tested at 100 nM, mean ± SEM (n); for mu opioid receptor antagonist activity (in words): smooth muscle preparations
Protocol: (§1) Smooth Muscle Preparations. […] All of the compounds were tested on the electrically stimulated guinea-pig ileal longitudinal muscle (GPI), see Rang, H. P. Stimulant Actions of Volatile Anaesthetics on Smooth Muscle. Br. J. Pharmacol. 1964, 22, 356–365, and the mouse vas-deferens (MVD), see Henderson, G.; Hughes, J.; Kosterlitz, H. W. A New Example of a Morphine-Sensitive Neuroeffector Junction: Adrenergic Transmission in the Mouse vas Deferens. Br. J. Pharmacol. 1972, 46, 764–766, preparations for their agonist and antagonist activities as previously described, see (a) Portoghese, P. S.; Lipkowski, A. W.; Takemori, A. E. Binaltorphimine and Nor-binaltorphimine, Potent and Selective Kappa-Opioid Receptor Antagonists. Life Sci. 1987, 40, 1287–1292. (b) Portoghese, P. S.; Takemori, A. E. TENA. A Selective Kappa Opioid Receptor Antagonist. Life Sci. 1985, 36, 801–805. […] Morphine (M), (−)-ethylketazocine (EK), and [D-Ala^2,D-Leu^5]enkephalin (DADLE) were employed as mu, kappa and delta selective agonists, respectively. Morphine and EK were used in the GPI, and DADLE was employed in the MVD studies. Concentration-response curves were obtained in the absence (control) and presence of the antagonist in the same preparation. Antagonist potency is expressed as an IC50 ratio, that is the IC50 of the agonist in the presence of antagonist divided by the control IC50 of the agonist in the same preparation, and as a Ke value derived from the relationship, Ke=[antagonist]/[…].

[1] = target: T1, rat kappa-opioid receptor (Rattus norvegicus, UniProt P34975); assay: [3H]diprenorphine binding on transiently transfected HEK-293 cells, kappa; conditions: for Ki: [3H]diprenorphine, HEK-293 cells, rat kappa receptor, read-out: Ki κ
T1 construct: expressed in transfected cells; host or cells: HEK-293 (transient, calcium phosphate)
Protocol: (§2) Receptor Binding. HEK-293 in DMEM (Gibco, BRL) supplemented with 10% Bovine Calf Serum (Hyclone) and 1% penicillin/streptomycin (Gibco, BRL) were maintained at 37° C. and in 5% CO2. Cells were seeded at 16% for 24 hours prior to transfection. Fresh media was added 2 hours prior to transfection. Cells were transfected with plasmid DNA (20 μg/100 mm plate) of either wild type or mutant receptor cDNA using the calcium phosphate precipitation method, see Chen, C.; Okayama, H. High Efficiency Transformation of Mammalian Cells by Plasmid DNA. Mol. Cell. Bio. 1987, 7, 2745–2752. Media was changed 5 hours after transfection. Transfected cells were harvested 48–72 hours after transfection for binding studies.
(§3) Sixty to 72 hours after transfection, HEK cells were washed three times with 25 mM HEPES buffer (pH 7.4) and were resuspended with 8–12 mL of 25 mM HEPES/100 mm plate. Saturation binding assays were performed in triplicate. Nonselective binding was determined using 10 μM naltrexone. Assays were incubated at room temperature for 90 minutes in a total binding volume of 0.5 mL and were terminated by filtration through a Whatman GF/B filter that had been presoaked in 0.25% poly(ethyleneimine) immediately prior to filtration. Filters were washed three times with 4 mL of ice-cold 25 mM HEPES buffer, and scintillation counting was performed with a Beckman 3801 LS Scintillation Counter. Protein concentrations were determined by the method of Bradford, see Bradford, M. M. A Rapid and Selective Method for the Quantitation of Microgram Quantities of Protein utilizing the Principle of Protein-dye Binding. Anal. Biochem. 1976, 72, 248–254. Raw binding data was analyzed with RADLIG and LIGAND (G. A. McPherson, Biosoft, Cambridge, UK). Inhibition constants (Ki) were determined from IC50 values with the Cheng-Prusoff equation, see Cheng, Y. C.; Prusoff, W. H.; Relationship between the inhibition Constant (Ki) and the concentration of inhibitor which causes 50 per cent inhibition (I50) of an enzymatic reaction. Biochem. Pharmacol. 1973, 22, 3099–3108.
(§4) As summarized in Table 2, receptor binding was determined in triplicate using [^3H]diprenorphine on HEK-293 cells that were transiently transfected with plasmids encoding rat kappa-, rat mu-, or mouse delta-opioid receptors.

kappa opioid receptor = target: T2, kappa opioid receptor (Cavia porcellus, UniProt P41144); assay: Antagonism of ethylketazocine (EK) in the electrically stimulated guinea-pig ileal longitudinal muscle (GPI) preparation; type: cell-based; conditions: for EK (κ) IC50 ratio: GPI, antagonist tested at 100 nM, mean (n)
T2 construct: tested on the electrically stimulated guinea-pig ileal longitudinal muscle (GPI); from tissue; host or cells: guinea-pig ileal longitudinal muscle
Protocol: as §1

rat mu-opioid receptor = target: T3, rat mu-opioid receptor (Rattus norvegicus, UniProt P33535); assay: [3H]diprenorphine binding on transiently transfected HEK-293 cells, mu; conditions: for Ki: [3H]diprenorphine, HEK-293 cells, rat mu receptor, read-out: Ki μ
T3 construct: expressed in transfected cells; host or cells: HEK-293 (transient, calcium phosphate)
Protocol: as §2, §3, §4

delta opioid receptor = target: T4, delta opioid receptor (Mus musculus, UniProt P32300); assay: Antagonism of DADLE in the mouse vas-deferens (MVD) preparation; type: cell-based; conditions: for DADLE (δ) IC50 ratio: MVD, antagonist tested at 100 nM, mean ± SEM (n); for delta opioid receptor antagonist activity (in words): smooth muscle preparations
T4 construct: and the mouse vas-deferens (MVD); from tissue; host or cells: mouse vas deferens
Protocol: as §1

[2] = target: T5, mouse delta-opioid receptor (Mus musculus, UniProt P32300); assay: [3H]diprenorphine binding on transiently transfected HEK-293 cells, delta; conditions: for Ki: [3H]diprenorphine, HEK-293 cells, mouse delta receptor, read-out: Ki δ; for binding to delta receptor (in words): cloned receptors, HEK-293
T5 construct: expressed in transfected cells; host or cells: HEK-293 (transient, calcium phosphate)
Protocol: as §2, §3
As summarized in Table 2, receptor binding was determined in triplicate using [^3H]diprenorphine on HEK-293 cells that were transiently transfected with plasmids encoding rat kappa-, rat mu-, or mouse delta-opioid receptors. […] The results are consistent with the kappa agonist selectivity of compound 4b observed in the GPI. […] Binding to mu receptors was uniformly low for all regioisomers.

[3] = test system: guinea-pig ileal longitudinal muscle (GPI); assay: Agonist activity in the GPI assay (concentration-response compared to morphine, reversal by antagonists); type: cell-based
Protocol: as §1

mouse vas-deferens (MVD) = assay: Agonist activity in the MVD assay; type: cell-based; conditions: at 1 μM
Protocol: as §1, with “Concentration-response curves were obtained in the absence (control) and presence of the antagonist in the same preparation.” left out

T2 sequence (P41144 whole entry): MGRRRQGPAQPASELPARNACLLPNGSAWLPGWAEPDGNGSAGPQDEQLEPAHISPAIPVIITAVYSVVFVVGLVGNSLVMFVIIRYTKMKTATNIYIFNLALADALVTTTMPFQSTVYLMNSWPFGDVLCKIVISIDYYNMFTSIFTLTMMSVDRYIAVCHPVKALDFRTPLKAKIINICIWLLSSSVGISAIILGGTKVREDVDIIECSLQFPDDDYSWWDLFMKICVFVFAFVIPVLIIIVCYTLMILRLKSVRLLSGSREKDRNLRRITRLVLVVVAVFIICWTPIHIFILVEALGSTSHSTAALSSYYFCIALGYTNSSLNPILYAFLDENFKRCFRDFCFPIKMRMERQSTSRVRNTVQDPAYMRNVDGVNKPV
T4 sequence (P32300 whole entry): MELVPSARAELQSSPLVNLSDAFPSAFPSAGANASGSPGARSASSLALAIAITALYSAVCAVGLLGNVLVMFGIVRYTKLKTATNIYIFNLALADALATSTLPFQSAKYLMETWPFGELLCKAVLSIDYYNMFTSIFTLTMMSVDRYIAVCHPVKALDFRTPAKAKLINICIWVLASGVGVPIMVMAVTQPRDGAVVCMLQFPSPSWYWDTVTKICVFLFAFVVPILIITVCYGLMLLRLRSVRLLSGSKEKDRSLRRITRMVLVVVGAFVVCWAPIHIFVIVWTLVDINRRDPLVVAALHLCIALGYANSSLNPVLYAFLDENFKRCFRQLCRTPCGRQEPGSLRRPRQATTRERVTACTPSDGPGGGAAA
T5 sequence (P32300 whole entry): as above
T3 sequence (P33535 whole entry): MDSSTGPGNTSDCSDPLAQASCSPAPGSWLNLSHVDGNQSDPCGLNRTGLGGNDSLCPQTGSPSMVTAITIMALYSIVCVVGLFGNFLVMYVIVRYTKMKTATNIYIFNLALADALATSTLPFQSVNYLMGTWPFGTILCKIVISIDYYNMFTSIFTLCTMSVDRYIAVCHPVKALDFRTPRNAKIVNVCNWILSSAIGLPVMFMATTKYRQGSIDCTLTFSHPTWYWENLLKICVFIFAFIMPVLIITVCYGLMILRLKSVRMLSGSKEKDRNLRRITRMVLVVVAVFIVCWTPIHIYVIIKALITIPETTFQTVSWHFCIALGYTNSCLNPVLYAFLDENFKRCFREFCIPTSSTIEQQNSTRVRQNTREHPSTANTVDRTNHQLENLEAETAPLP
T1 sequence (P34975 whole entry): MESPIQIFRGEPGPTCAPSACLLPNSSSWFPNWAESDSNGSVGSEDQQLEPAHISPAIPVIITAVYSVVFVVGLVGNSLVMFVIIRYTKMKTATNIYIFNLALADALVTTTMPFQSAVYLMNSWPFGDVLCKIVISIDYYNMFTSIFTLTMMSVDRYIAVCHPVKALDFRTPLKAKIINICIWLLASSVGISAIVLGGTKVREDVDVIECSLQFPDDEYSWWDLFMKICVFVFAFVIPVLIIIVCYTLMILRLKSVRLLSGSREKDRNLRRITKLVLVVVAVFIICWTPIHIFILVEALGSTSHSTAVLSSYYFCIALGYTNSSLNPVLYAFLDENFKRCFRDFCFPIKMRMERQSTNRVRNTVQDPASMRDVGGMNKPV

SMILES | M (μ) Ke (mu opioid receptor) [nM] | M (μ) IC50 ratio (mu opioid receptor) | mu opioid receptor antagonist activity (in words) (mu opioid receptor) | Ki [1] [nM] | Kb (kappa opioid receptor) [nM] | EK (κ) IC50 ratio (kappa opioid receptor) | kappa opioid receptor antagonist activity (in words) (kappa opioid receptor; smooth muscle preparations) | Ki (rat mu-opioid receptor) [nM] | Kb (delta opioid receptor) [nM] | DADLE (δ) IC50 ratio (delta opioid receptor) | delta opioid receptor antagonist activity (in words) (delta opioid receptor) | Ki [2] [nM] | binding to delta receptor (in words) [2] | binding to kappa receptor (in words) ([1]; cloned receptors, HEK-293) | further results
N=C(N)Nc1cccc2c3c([nH]c12)[C@@H]1Oc2c(O)ccc4c2[C@@]12CCN(CC1CC1)[C@H](C4)[C@]2(O)C3 [Compound 4c, 7′-Guanidino-17-(cyclopropylmethyl)-6,7-didehydro-4,5α-epoxy-3,14-hydroxyindolo-[2′,3′:6,7]morphinian] | 238 | 1.4 ± 0.9 (3) | inactive | 69.1 ± 25 | 100 | 2.0 (2) | inactive | 181 ± 20 | 0.96 | 105 ± 30 (4) | potent delta opioid receptor antagonist | 2.75 ± 0.48 | delta selectivity | – | –
Oc1ccc2c3c1O[C@H]1c4[nH]c5c(c4C[C@@]4(O)[C@@H](C2)N(CC2CC2)CC[C@]314)C[C@@]1(O)[C@H]2Cc3ccc(O)c4c3[C@@]1(CCN2CC1CC1)[C@H]5O4 [Compound 1, Norbinaltorphimine, reference compound] | 12.5 | – | – | – | – | – | – | – | – | – | – | – | – | – | Kb (kappa opioid receptor; GPI preparation, agonist ethylketazocine, Ke derived from IC50 ratio, read-out: EK (κ) Ke): 0.41 nM
N=C(N)Nc1ccc2c3c([nH]c2c1)[C@@H]1Oc2c(O)ccc4c2[C@@]12CCN(CC1CC1)[C@H](C4)[C@]2(O)C3 [Compound 4b, 6′-Guanidino-17-(cyclopropylmethyl)-6,7-didehydro-4,5α-epoxy-3,14-hydroxyindolo-[2′,3′:6,7]morphinian] | – | – | – | 1.15 ± 0.39 | – | – | – | 81.8 ± 20.7 | – | – | – | 20.3 ± 6.7 | – | kappa-selective | agonist potency relative to that of morphine ([3]; GPI assay, FIG. 5): 51 fold; agonist activity and selectivity (in words) ([3]; GPI assay, with MVD results): kappa-selective agonist; reversal of the agonist effect by naltrexone ([3]; GPI, naltrexone 500 nM): only partially reversed; reversal of the agonist effect by norBNI ([3]; GPI, norBNI 20 nM): completely reversed; affinity for kappa receptors relative to GNTI ([1]; cloned receptors, HEK-293): one-tenth; agonist activity in MVD assay (mouse vas-deferens (MVD)): inactive as an agonist
N=C(N)Nc1cccc2[nH]c3c(c12)C[C@@]1(O)[C@H]2Cc4ccc(O)c5c4[C@@]1(CCN2CC1CC1)[C@H]3O5 [Compound 4a, 4′-Guanidino-17-(cyclopropylmethyl)-6,7-didehydro-4,5α-epoxy-3,14-hydroxyindolo-[2′,3′:6,7]morphinian] | – | 0.34 (2) | virtually inactive | – | 80 | 2.3 (2) | virtually inactive | – | 263 | 1.4 (2) | virtually inactive | – | eliminated binding | eliminated binding | binding to mu receptor (in words) (rat mu-opioid receptor; cloned receptors, HEK-293): eliminated binding
N=C(N)Nc1ccc2[nH]c3c(c2c1)C[C@@]1(O)[C@H]2Cc4ccc(O)c5c4[C@@]1(CCN2CC1CC1)[C@H]3O5 [Compound 3, 5′-Guanidino-17-(cyclopropylmethyl)-6,7-didehydro-4,5α-epoxy-3,14-hydroxyindolo-[2′,3′:6,7]morphinian, reference compound] | – | – | – | 0.14 ± 0.03 | 0.16 | – | highly potent and selective kappa opioid receptor antagonist | 99.7 ± 8.7 | – | – | – | 24.8 ± 11.3 | – | – | affinity for the kappa receptor relative to mu and delta receptors ([1]; cloned receptors, HEK-293): greater than two orders of magnitude; kappa antagonist potency relative to norBNI 1 (kappa opioid receptor; smooth muscle preparations): approximately four-fold
